Data from patent publication US9341616B2, “Sweet taste receptor chimeric proteins and use thereof” (AJINOMOTO CO., INC., priority 2014, dated 2016).
Residues, ends and D or L forms follow the SMILES beside them.

Each compound was assayed against h-mT1R2-481/T1R3mosaicC (UniProt Q8TE23+Q925D8, A537S/A558R/A564V/A568V/A570T/A588V/A645S/A649T/A658V/A698V/A702T/A782V/A793V/A807V/C582S/C678S/D172E/D176A/D217E/E221Q/E530V/E534N/E542M/E548N/E725V/F525Y/F541I/F612A/F622V/F665L/F695L/G696N/G701T/H484Y/H528R/H728R/I481V/I486P/I490V/I510L/I518V/I595M/I617V/I643V/I645L/I692L/I695G/I706V/I740A/I803L/K504M/K555R/K565R/K626T/K714N/K818R/K827G/L521P/L560F/L571I/L578I/L610P/L631F/L636F/L639V/L684P/L688V/L702I/L734M/L735F/L800F/L823M/L825Q/M492I/M616G/M644L/M682V/M690V/M744T/M748V/N203E/N231A/N540G/N541S/N547G/N675D/N721H/P545F/P561R/P564S/P638T/P824S/Q195T/Q536L/Q546K/Q550E/Q555R/Q611L/Q676H/Q757R/Q795R/Q831P/R173L/R498S/R632Q/R667S/S168G/S205G/S228A/S501P/S547N/S550A/S576L/S595F/S610P/S628F/S635P/S637R/S663R/S670G/S679G/S681F/S703N/S717H/S727G/S784D/S804G/T199E/T529S/T542A/T549I/T609V/T629S/T642S/T663I/T694M/T705I/T706G/T716I/T813A/V197A/V198A/V508I/V512P/V557A/V573A/V584A/V585L/V613L/V617M/V673M/V687A/V691A/V694A/V718L/V718M/V723A/V729T/V738A/V741L/V774I/V791M/V805L/V812A/V821L/W599R/W676R/W824R/Y533F/Y615F/Y671F/Y680C/Y769S/Y783H/Y794L). Conditions: Table 6; genes h-mT481/T1R3mC (h-mT1R2-481, T1R3mC); HEK293E cells.
h-mT1R2-481/T1R3mosaicC, sequence (Q8TE23 with tags, fused parts or gaps with the stated changes limits assumed): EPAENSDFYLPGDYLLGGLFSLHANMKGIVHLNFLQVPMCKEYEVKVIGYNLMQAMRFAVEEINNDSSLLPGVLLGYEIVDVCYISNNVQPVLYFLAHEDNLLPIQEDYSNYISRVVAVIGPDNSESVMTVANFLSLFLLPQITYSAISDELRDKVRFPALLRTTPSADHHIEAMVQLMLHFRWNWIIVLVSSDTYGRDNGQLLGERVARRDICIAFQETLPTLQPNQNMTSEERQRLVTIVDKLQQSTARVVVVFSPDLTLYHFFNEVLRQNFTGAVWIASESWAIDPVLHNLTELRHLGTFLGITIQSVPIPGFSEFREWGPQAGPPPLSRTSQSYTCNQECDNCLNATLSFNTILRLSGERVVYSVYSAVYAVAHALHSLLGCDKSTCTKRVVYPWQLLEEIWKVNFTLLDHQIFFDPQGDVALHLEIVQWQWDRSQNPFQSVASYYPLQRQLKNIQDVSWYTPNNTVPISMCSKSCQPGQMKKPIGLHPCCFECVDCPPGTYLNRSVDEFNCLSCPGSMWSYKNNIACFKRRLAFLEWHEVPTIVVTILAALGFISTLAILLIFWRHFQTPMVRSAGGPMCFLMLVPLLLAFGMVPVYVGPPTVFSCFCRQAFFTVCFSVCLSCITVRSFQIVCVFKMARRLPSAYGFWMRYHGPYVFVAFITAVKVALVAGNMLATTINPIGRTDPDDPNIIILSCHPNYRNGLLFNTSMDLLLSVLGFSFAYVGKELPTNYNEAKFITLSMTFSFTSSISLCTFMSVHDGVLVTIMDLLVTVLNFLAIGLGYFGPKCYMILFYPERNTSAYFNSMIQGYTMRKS
h-mT1R2-481/T1R3mosaicC, sequence (Q925D8 with tags, fused parts or gaps with the stated changes limits assumed): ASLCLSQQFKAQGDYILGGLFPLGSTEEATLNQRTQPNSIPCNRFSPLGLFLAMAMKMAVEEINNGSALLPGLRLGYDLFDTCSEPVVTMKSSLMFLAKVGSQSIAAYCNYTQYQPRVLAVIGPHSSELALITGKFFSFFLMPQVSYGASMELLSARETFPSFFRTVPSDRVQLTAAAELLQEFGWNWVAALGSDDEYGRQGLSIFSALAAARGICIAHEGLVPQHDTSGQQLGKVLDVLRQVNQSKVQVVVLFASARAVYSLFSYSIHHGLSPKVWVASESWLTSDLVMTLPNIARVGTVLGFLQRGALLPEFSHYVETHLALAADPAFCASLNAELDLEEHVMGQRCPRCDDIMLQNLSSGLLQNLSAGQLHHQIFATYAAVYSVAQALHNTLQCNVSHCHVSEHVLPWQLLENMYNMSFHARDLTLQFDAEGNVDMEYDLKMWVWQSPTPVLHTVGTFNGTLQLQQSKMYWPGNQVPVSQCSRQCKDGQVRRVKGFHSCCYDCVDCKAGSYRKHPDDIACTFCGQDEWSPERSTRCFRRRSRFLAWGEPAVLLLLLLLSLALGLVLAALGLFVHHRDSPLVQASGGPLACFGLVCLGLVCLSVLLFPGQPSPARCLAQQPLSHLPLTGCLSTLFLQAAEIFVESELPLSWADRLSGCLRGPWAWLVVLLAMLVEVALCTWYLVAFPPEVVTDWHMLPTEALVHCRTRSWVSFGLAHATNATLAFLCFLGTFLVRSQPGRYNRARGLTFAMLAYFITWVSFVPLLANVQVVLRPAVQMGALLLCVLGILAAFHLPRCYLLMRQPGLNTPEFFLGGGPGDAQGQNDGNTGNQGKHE
Protocol: The HEK293E cells maintained by using the DMEM/Ham's F-12 medium (Nakarai Tesque) containing 10% fetal bovine serum ([…]) and 1% Pen Strep (GIBCO) were washed with D-PBS(−) (Nakarai Tesque), and collected from the flask by using 0.25% Trypsin EDTA (GIBCO). The cells were centrifuged (1,200 rpm, 3 minutes), and after the supernatant was removed, suspended in 5% FBS DMEM/Ham's F-12 at a density of 0.75×10^7 cell/ml. This suspension (10 ml) was put into a […] (IWAKI), and culture was performed overnight (37° C., 5% CO2). On the next day, the medium was exchanged with Opti-MEM (30 ml, Invitrogen, Life Technologies), a sweet taste receptor gene mixture (Gα15-trans48LD gene, various kinds of T1R2 chimeric genes, and various kinds of T1R3 chimeric genes, 63.8 μg in total) prepared by using Opti-MEM and Lipofectamin 2000 (Invitrogen, Life Technologies) was slowly added to the cell suspension, and incubation was performed (37° C., 5% CO2) for 6 hours to attain gene transfer.
After the gene transfer, the cells were washed with D-PBS(−), then removed from the flask by using 0.25% Trypsin EDTA (GIBCO), and collected. After the cell number was counted, the cells were suspended in the 5% FBS DMEM medium (2.78 mM glucose, GIBCO) at a density of 0.5×10^6 cell/ml. This cell suspension was put into wells of D-Lysine coat 96-well plate (BD bioscience) in such a volume that the cell count is 7.0×10^4 cells/well, and the cells were cultured overnight.
After the culture, all the medium of the 96 wells were discarded. 200 μl of the staining solution for measurement of intracellular calcium ion′ Calcium Assay Kit Express (Molecular Device), diluted 80 times with an assay buffer (20 mM HEPES, 146 mM NaCl, 1 mM MgSO4, 1.39 mM glucose, 1 mM CaC12, 2.5 mM Probenecid, 0.05% bovine serum albumin) was added to each well, and the plate was left standing at 37° C. for 30 minutes and at room temperature for 45 minutes to perform staining. After the staining, 50 μl of a solution of stimulant (sweet taste substance) prepared with the assay buffer was added to each well, and the fluorescence value was measured for 120 seconds after the stimulation by using FDSSμEELL (Hamamatsu Photonics). By measuring the fluorescence value (Ex. 480 nm, Em. 540 nm) before and after the stimulation, the change of the intracellular free calcium ion concentration caused by addition of the stimulant via a sweet taste receptor was quantitatively investigated. The measurement and analysis of the fluorescence value was performed by using the software attached to FDSSμEELL (FDSS7000EX), and ΔF/F value was calculated in accordance with the following equation, and used for the evaluation. ΔF/F=(Maximum fluorescence value after stimulation−Minimum fluorescence value after stimulation)/(Fluorescence value before stimulation)
Furthermore, by using the ΔF/F values obtained when each sweet taste substance was added, the S/N ratio was calculated. Specifically, the S/N value was calculated by using the minimum value of ΔF/F obtained when each substance was added at various concentrations as noise (N) value, and the similarly obtained maximum value of ΔF/F as the signal (S) value, and used as an index for sensitivity of the measurement of the activity of each receptor. That is, a higher S/N value means a higher sensitivity for detection of an interaction of a sweet taste receptor and a test substance, which makes it easier to detect stimulation with a sweet taste substance or sweet taste-regulating substance of a lower concentration.
The sweet taste substances used as the stimulating substance are acesulfame potassium (Tokyo Kasei Kogyo), sodium saccharin (WAKO), sucralose (SIGMA), sucrose (WAKO), and neotame (SIGMA), as well as aspartame, advantame, and SC-45647 ([3-[(S)-1-phenylethyl]-2-(4-cyanophenyl)guanidino]acetic acid, which were all synthesized in-house.
Compound CC1=CC(=O)NS(=O)(=O)O1 [Acesulfame K, acesulfame potassium] has a S/N of 3.2.
COC(=O)[C@H](Cc1ccccc1)NC(=O)[C@H](CC(=O)O)NCCCc1ccc(OC)c(O)c1 [Advantame, advantame] was tested, and the S/N was 9.9.
Work on COC(=O)[C@H](Cc1ccccc1)NC(=O)[C@@H](N)CC(=O)O [Aspartame, aspartame] (HELM PEPTIDE1{D.F.[CO[*:1]]}$$$$V2.0) yielded a S/N of 6.3.
COc1ccc(CCC(=O)c2c(O)cc(O[C@@H]3O[C@H](CO)[C@@H](O)[C@H](O)[C@H]3O[C@@H]3O[C@@H](C)[C@H](O)[C@@H](O)[C@H]3O)cc2O)cc1O [NHDC, neohesperidin dihydrochalcone] gave a S/N of 3.9.
Work on COC(=O)[C@H](Cc1ccccc1)NC(=O)[C@H](CC(=O)O)NCCC(C)(C)C [Neotame, neotame] yielded a S/N of 8.4.
Work on C[C@H](NC(=Nc1ccc(C#N)cc1)NCC(=O)O)c1ccccc1 [SC-45647, [3-[(S)-1-phenylethyl]-2-(4-cyanophenyl)guanidino]acetic acid] yielded a S/N of 6.1.
Compound O=C1NS(=O)(=O)c2ccccc21.[Na] [Saccharin Na, sodium saccharin] has a S/N of 4.5.
Compound OC[C@H]1O[C@H](O[C@]2(CCl)O[C@H](CCl)[C@@H](O)[C@@H]2O)[C@H](O)[C@@H](O)[C@H]1Cl [Sucralose, sucralose] has a S/N of 4.8.
With OC[C@H]1O[C@@](CO)(O[C@H]2O[C@H](CO)[C@@H](O)[C@H](O)[C@H]2O)[C@@H](O)[C@@H]1O [Sucrose, sucrose] the S/N was 3.4.
